# Counter-ions that a name gives are not always drawn. Like-named read-outs stand apart in the source and are kept apart here.
# Experiment: Phase 1a study: pharmacokinetics after oral BID dosing in subjects with advanced solid tumors
# Assay type: in vivo, human
# Parameters: Increase in mean: scale not given here
# Conditions: for Increase in mean: 600 mg vs preceding dose level (400 mg); for Cmax / half-life / AUC(0-t) / Vd/F / Tmax: human, in vivo, po; for Vd/F: read-out: Vz/F
# Experimental: This example describes a first in human, Phase 1a, multi-center, open-label study to establish the maximum tolerated dose (MTD) and evaluate the safety and tolerability of oral dosing of Form A of the hemi-fumarate salt of the compound of formula (I) (Example 11) in a dose-escalating fashion. Form A of the hemi-fumarate salt was orally administered BID every day with food or within 30 minutes of completing a meal, starting at 25 mg, with doses escalating to 50, 100, 200, 400, 600, and 900 mg BID as safety allows for each 3-week treatment cycle.
# Up to 36 qualified subjects at 3 to 5 US sites, who have specific tumor types of renal cell carcinoma (RCC), gastric cancer (GC), metastatic breast cancer (MBC), small cell lung cancer (SCLC), and other solid tumors (e.g., non-small cell lung cancer, colorectal cancer, carcinoma of unknown primary) with the exception of rapidly progressing neoplasms (e.g., pancreatic cancer, glioblastoma, hepatocellular carcinoma) received Form A of the hemi-fumarate salt. Every effort was made to ensure approximately 50% of all subjects enrolled were subjects with RCC and GC. The starting dose level was 25 mg twice daily (BID), escalating to 50, 100, and 200 mg BID as safety allows, following the Bayesian Optimal Interval (BOIN) design. The safety monitoring committee (SMC) evaluated the dose-limiting toxicities (DLTs) and cumulative safety and PK data at the end of each cohort. Based on the SMC recommendations after a comprehensive review of PK and safety data for 200 mg BID dose, higher dose levels were evaluated, starting with 400 mg BID. The dose escalated to 600 mg and then 900 mg following the BOIN design starting with 1 subject at each escalated dose, until the MTD was reached or the sponsor or SMC declares the dose most appropriate for clinical development. This Phase 1a will be expanded into a Phase 1b/2a study through a protocol amendment and will then assess the dose and tumor type(s) selected in Phase 1a as the most appropriate for further clinical development. Subjects were dosed until unacceptable toxicity, disease progression per immune-related Response Evaluation Criteria in Solid Tumors (iRECIST), subject withdrawal, any other administrative reasons, or after 2 years of treatment, whichever occurs first. Efficacy was assessed via Response Evaluation Criteria in Solid Tumors 1.1 (RECIST 1.1); computed tomography (CT) scans were conducted every 6 weeks. Safety, including occurrence of dose-limiting toxicities (DLTs), pharmacokinetics (PK), and biomarker parameters were also assessed.
# Form A of the hemi-fumarate salt was orally administered BID with food or within 30 minutes of completing a meal, starting at 25 mg, with doses escalating to 50, 100, 200, 400, 600 and 900 mg BID as safety allowed. Up to 24 subjects were enrolled to ensure 12 subjects completed the study at the estimated MTD of Form A of the hemi-fumarate salt. Dosing occurred in 3-week cycles. Subjects spent Cycle 1/Day 1 (C1D1) in the clinic followed by an overnight stay for safety monitoring and PK sampling. Subjects were hospitalized for administration of first 3 doses: CID1 am and pm doses, and Cycle 1/Day 2 (C1D2) am dose; on Days 8, 15, and 21 the am dose was taken in the clinic after the planned PK samples. All other doses were self administered at home.
# Results of Cohorts 1 to 6 the study are detailed in Tables 47-50 below.
# [1] = 25 mg, 25 mg single oral dose, Cycle 1 Day 1, geometric mean, N = 3
# [2] = 50 mg, 50 mg single oral dose, Cycle 1 Day 1, geometric mean, N = 3
# [3] = 200 mg, 200 mg single oral dose, Cycle 1 Day 1, geometric mean, N = 5
smiles,measurement,setting,value
"Cc1cc(NC(=O)[C@H](O)c2cc(F)cc(F)c2)ccc1-c1cnc(N)c(C(=O)NC(C)C)c1 [Form A of the hemi-fumarate salt, (R)-2-amino-5-(4-(2-(3,5-difluorophenyl)-2-hydroxyacetamido)-2-methylphenyl)-N-isopropylnicotinamide]",Increase in mean,"single oral dose, Cycle 1 Day 1",3.03
same,Increase in mean,"twice daily oral, Cycle 1 Day 21",1.19
same,Cmax,[1],120 ng/mL
same,half-life,"25 mg, 25 mg single oral dose, Cycle 1 Day 1, geometric mean, N = 3, interpret with caution, terminal elimination phase not well captured, read-out: t1/2 (converted)",8.99 h
same,AUC(0-t),"25 mg, 25 mg single oral dose, Cycle 1 Day 1, geometric mean, N = 3, read-out: AUC0-12",850 ng·h/mL
same,AUC(0-t),"25 mg, 25 mg single oral dose, Cycle 1 Day 1, geometric mean, N = 3, read-out: AUC0-last",850 ng·h/mL
same,Vd/F,[1],147 L
same,Tmax,"25 mg, 25 mg single oral dose, Cycle 1 Day 1, median, N = 3",8 h
same,half-life,"25 mg, 25 mg twice daily oral, Cycle 1 Day 21, N = 3, interpret with caution, terminal elimination phase not well captured, read-out: t1/2 (converted)",16 h
same,Vd/F,"25 mg, 25 mg twice daily oral, Cycle 1 Day 21, N = 3",150 L
same,Cmax,"25 mg, 25 mg twice daily oral, Cycle 1 Day 21, geometric mean, N = 3",537 ng/mL
same,AUC(0-t),"25 mg, 25 mg twice daily oral, Cycle 1 Day 21, geometric mean, N = 3, read-out: AUC0-last",4110 ng·h/mL
same,half-life,"25 mg, 25 mg twice daily oral, Cycle 1 Day 21, geometric mean, N = 3, read-out: t1/2, eff (converted)",35.8 h
same,Tmax,"25 mg, 25 mg twice daily oral, Cycle 1 Day 21, median, N = 3",2 h
same,Cmax,[2],243 ng/mL
same,half-life,"50 mg, 50 mg single oral dose, Cycle 1 Day 1, geometric mean, N = 3, interpret with caution, terminal elimination phase not well captured, read-out: t1/2 (converted)",11.1 h
same,AUC(0-t),"50 mg, 50 mg single oral dose, Cycle 1 Day 1, geometric mean, N = 3, read-out: AUC0-12",2090 ng·h/mL
same,AUC(0-t),"50 mg, 50 mg single oral dose, Cycle 1 Day 1, geometric mean, N = 3, read-out: AUC0-last",2090 ng·h/mL
same,Vd/F,[2],141 L
same,Tmax,"50 mg, 50 mg single oral dose, Cycle 1 Day 1, median, N = 3",4 h
same,Cmax,"50 mg, 50 mg twice daily oral, Cycle 1 Day 21, geometric mean, N = 3",978 ng/mL
same,AUC(0-t),"50 mg, 50 mg twice daily oral, Cycle 1 Day 21, geometric mean, N = 3, read-out: AUC0-last",9070 ng·h/mL
same,half-life,"50 mg, 50 mg twice daily oral, Cycle 1 Day 21, geometric mean, N = 3, read-out: t1/2, eff (converted)",31.5 h
same,Tmax,"50 mg, 50 mg twice daily oral, Cycle 1 Day 21, median, N = 3",2 h
same,Cmax,"100 mg, 100 mg single oral dose, Cycle 1 Day 1, geometric mean, N = 4",380 ng/mL
same,AUC(0-t),"100 mg, 100 mg single oral dose, Cycle 1 Day 1, geometric mean, N = 4, read-out: AUC0-12",2800 ng·h/mL
same,AUC(0-t),"100 mg, 100 mg single oral dose, Cycle 1 Day 1, geometric mean, N = 4, read-out: AUC0-last",1930 ng·h/mL
same,Tmax,"100 mg, 100 mg single oral dose, Cycle 1 Day 1, median, N = 4",7 h
same,half-life,"100 mg, 100 mg twice daily oral, Cycle 1 Day 21, N = 3, interpret with caution, terminal elimination phase not well captured, read-out: t1/2 (converted)",37.6 h
same,Vd/F,"100 mg, 100 mg twice daily oral, Cycle 1 Day 21, N = 3",383 L
same,Cmax,"100 mg, 100 mg twice daily oral, Cycle 1 Day 21, geometric mean, N = 3",1310 ng/mL
same,AUC(0-t),"100 mg, 100 mg twice daily oral, Cycle 1 Day 21, geometric mean, N = 3, read-out: AUC0-last",11700 ng·h/mL
same,half-life,"100 mg, 100 mg twice daily oral, Cycle 1 Day 21, geometric mean, N = 3, read-out: t1/2, eff (converted)",30.1 h
same,Tmax,"100 mg, 100 mg twice daily oral, Cycle 1 Day 21, median, N = 3",4 h
same,Cmax,[3],839 ng/mL
same,half-life,"200 mg, 200 mg single oral dose, Cycle 1 Day 1, geometric mean, N = 5, interpret with caution, terminal elimination phase not well captured, read-out: t1/2 (converted)",20.6 h
same,AUC(0-t),"200 mg, 200 mg single oral dose, Cycle 1 Day 1, geometric mean, N = 5, read-out: AUC0-12",5800 ng·h/mL
same,AUC(0-t),"200 mg, 200 mg single oral dose, Cycle 1 Day 1, geometric mean, N = 5, read-out: AUC0-last",5800 ng·h/mL
same,Vd/F,[3],331 L
same,Tmax,"200 mg, 200 mg single oral dose, Cycle 1 Day 1, median, N = 5",4 h
same,half-life,"200 mg, 200 mg twice daily oral, Cycle 1 Day 21, N = 4, interpret with caution, terminal elimination phase not well captured, read-out: t1/2 (converted)",7.71 h
same,Vd/F,"200 mg, 200 mg twice daily oral, Cycle 1 Day 21, N = 4",79.4 L
same,Cmax,"200 mg, 200 mg twice daily oral, Cycle 1 Day 21, geometric mean, N = 4",2990 ng/mL
same,AUC(0-t),"200 mg, 200 mg twice daily oral, Cycle 1 Day 21, geometric mean, N = 4, read-out: AUC0-last",27200 ng·h/mL
same,half-life,"200 mg, 200 mg twice daily oral, Cycle 1 Day 21, geometric mean, N = 4, read-out: t1/2, eff (converted)",35.9 h
